Laboratory results published in paper PMC12518996 (Frontiers in Pharmacology, 2025).

Legend:
Assay type in all cases: in vitro ADME
MAOA = target: T1, MAOA (Homo sapiens, UniProt P21397); assay: Metabolite formation by recombinant human MAOA; conditions: trazodone 4 μM; 37 °C, 40 min
T1 sequence (P21397 1-527): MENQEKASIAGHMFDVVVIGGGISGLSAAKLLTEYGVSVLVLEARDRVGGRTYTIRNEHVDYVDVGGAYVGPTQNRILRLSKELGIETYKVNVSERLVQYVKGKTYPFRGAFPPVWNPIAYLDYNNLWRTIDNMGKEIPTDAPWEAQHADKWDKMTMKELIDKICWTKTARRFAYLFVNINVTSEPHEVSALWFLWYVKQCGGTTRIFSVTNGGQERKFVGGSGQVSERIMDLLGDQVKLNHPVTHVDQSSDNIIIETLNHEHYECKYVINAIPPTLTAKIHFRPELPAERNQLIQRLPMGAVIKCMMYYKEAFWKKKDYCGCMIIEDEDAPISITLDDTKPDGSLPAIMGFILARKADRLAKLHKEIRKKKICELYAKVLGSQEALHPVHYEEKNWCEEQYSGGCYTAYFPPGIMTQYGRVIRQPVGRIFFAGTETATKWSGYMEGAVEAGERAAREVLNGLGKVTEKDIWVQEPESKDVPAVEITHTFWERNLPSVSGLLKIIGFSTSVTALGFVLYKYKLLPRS

CYP2C9 = CYP2C9 (Homo sapiens, UniProt P11712); assay: Metabolite formation by recombinant human CYP2C9; conditions: trazodone 4 μM; NADPH; 37 °C, 40 min
Procedure: (§1) Each reaction was terminated with acetonitrile, centrifuged, and the supernatant was analyzed by identical UHPLC-Orbitrap setup outlined in §2.2, allowing direct comparison of metabolite spectra across all in-vitro systems.

CYP2C19 = CYP2C19 (Homo sapiens, UniProt P33261); assay: Metabolite formation by recombinant human CYP2C19; conditions: trazodone 4 μM; NADPH; 37 °C, 40 min
Procedure: (§2) To confirm the role of individual CYP isoforms in metabolizing trazodone, recombinant human and rat CYP enzymes were employed in separate incubations. […] Each reaction was terminated with acetonitrile, centrifuged, and the supernatant was analyzed by identical UHPLC-Orbitrap setup outlined in §2.2, allowing direct comparison of metabolite spectra across all in-vitro systems. […] This procedure helped confirm the contributions of individual isoforms to specific biotransformation reactions.

CYP1B1 = target: T2, CYP1B1 (Rattus norvegicus, UniProt Q64678); assay: Metabolite formation by recombinant rat CYP1B1; conditions: trazodone 4 μM; NADPH; 37 °C, 40 min
T2 sequence (Q64678 1-543): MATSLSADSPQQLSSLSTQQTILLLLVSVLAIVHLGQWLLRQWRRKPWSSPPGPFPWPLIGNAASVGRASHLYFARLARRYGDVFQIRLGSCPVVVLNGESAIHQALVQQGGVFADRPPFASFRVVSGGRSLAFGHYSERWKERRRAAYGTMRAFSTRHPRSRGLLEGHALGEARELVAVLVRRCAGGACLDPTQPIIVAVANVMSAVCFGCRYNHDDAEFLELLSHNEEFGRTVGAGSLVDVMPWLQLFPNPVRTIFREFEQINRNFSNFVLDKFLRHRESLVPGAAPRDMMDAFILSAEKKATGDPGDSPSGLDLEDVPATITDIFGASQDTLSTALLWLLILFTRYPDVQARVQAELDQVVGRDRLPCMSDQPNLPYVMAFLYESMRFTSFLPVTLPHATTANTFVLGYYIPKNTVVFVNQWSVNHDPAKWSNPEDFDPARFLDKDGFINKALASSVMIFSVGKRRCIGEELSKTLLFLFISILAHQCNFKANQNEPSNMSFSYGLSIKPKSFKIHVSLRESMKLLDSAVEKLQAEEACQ
Procedure: as §2

CYP2C11 = target: T3, CYP2C11 (Rattus norvegicus, UniProt P08683); assay: Metabolite formation by recombinant rat CYP2C11; conditions: trazodone 4 μM; NADPH; 37 °C, 40 min
T3 sequence (P08683 1-500): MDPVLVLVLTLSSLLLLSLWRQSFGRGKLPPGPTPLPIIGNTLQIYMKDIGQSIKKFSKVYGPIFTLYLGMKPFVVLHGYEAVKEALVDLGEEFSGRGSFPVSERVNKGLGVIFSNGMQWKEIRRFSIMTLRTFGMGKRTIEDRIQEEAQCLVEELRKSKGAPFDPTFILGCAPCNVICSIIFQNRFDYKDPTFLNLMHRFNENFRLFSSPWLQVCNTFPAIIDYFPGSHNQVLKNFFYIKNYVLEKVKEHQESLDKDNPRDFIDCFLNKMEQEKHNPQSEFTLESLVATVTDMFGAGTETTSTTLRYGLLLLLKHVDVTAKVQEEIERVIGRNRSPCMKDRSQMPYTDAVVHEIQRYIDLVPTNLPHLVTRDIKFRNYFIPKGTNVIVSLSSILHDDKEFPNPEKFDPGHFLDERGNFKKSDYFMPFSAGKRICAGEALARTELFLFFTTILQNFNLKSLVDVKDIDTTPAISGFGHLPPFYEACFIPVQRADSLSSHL
Procedure: as §2

CYP2D18 = assay: Metabolite formation by recombinant rat CYP2D18; conditions: trazodone 4 μM; NADPH; 37 °C, 40 min
Procedure: as §2

CYP3A9 = target: T4, CYP3A9 (Rattus norvegicus, UniProt P51538); assay: Metabolite formation by recombinant rat CYP3A9; conditions: trazodone 4 μM; NADPH; 37 °C, 40 min
T4 sequence (P51538 1-503): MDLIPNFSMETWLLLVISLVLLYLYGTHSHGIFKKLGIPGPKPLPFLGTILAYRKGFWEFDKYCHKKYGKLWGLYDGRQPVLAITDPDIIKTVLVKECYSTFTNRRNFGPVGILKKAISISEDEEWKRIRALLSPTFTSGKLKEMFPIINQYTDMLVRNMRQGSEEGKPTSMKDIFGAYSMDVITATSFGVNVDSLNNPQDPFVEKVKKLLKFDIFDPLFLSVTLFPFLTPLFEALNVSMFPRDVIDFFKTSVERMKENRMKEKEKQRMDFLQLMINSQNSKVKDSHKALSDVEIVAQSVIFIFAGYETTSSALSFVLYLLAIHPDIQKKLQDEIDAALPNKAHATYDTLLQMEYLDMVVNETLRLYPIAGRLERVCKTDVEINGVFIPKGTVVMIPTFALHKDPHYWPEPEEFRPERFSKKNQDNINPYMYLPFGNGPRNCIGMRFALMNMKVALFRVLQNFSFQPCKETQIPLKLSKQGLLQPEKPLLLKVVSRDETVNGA
Procedure: as §1

Chain of CYP2C9 (P11712 whole entry): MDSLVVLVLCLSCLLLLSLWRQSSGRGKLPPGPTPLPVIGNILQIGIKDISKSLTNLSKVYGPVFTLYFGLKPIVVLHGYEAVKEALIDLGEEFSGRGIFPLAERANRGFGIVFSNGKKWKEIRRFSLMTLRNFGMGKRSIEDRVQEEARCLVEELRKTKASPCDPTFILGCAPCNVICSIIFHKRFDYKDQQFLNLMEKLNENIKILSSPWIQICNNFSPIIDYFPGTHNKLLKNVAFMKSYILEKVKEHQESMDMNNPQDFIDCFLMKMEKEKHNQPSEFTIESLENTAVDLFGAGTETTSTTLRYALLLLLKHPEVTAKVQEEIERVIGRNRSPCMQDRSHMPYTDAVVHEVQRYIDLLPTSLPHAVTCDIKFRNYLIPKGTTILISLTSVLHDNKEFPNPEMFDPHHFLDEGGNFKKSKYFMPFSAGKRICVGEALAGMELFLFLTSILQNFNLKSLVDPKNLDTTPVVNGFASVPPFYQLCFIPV
Chain of CYP2C19 (P33261 whole entry, canonical isoform): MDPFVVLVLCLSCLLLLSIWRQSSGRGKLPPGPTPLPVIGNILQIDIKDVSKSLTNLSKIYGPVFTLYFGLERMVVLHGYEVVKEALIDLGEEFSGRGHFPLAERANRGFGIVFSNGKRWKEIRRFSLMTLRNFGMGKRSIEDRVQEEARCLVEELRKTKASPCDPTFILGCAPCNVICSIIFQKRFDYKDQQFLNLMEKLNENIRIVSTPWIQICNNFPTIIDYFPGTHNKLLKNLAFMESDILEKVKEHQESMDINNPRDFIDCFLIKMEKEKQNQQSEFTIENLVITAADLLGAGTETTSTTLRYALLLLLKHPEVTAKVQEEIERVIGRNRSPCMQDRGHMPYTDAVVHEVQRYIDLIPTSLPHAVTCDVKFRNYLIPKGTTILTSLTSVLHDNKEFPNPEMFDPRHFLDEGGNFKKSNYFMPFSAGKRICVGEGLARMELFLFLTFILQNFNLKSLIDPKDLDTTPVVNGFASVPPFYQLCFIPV

SMILES | Formation of trazodone phase I metabolite by recombinant human MAOA (as LC/MS peak areas) (MAOA) | Formation of trazodone phase I metabolite by recombinant human CYP2C9 (as LC/MS peak areas) (CYP2C9) | Formation of trazodone phase I metabolite by recombinant human CYP2C19 (as LC/MS peak areas) (CYP2C19) | Formation of trazodone phase I metabolite by recombinant rat CYP1B1 (as LC/MS peak areas) (CYP1B1) | Formation of trazodone phase I metabolite by recombinant rat CYP2C11 (as LC/MS peak areas) (CYP2C11) | Formation of trazodone phase I metabolite by recombinant rat CYP2D18 (as LC/MS peak areas) (CYP2D18) | Formation of trazodone phase I metabolite by recombinant rat CYP3A9 (as LC/MS peak areas) (CYP3A9)
Clc1cccc(N2CCNCC2)c1 [mCPP, m-chlorophenylpiperazine] | 28 | 40 | 189 | 724 | 6920 | 1962 | 18577
O=c1n(CCCO)nc2ccccn12 [Metabolite M20] | 0 | 0 | 0 | 94 | 743 | 240 | 1080
O=c1n(CCCN2CCNCC2)nc2ccccn12 [Metabolite M15] | 0 | 0 | 180 | 22 | 1210 | 134 | 719
